Our source for the EC50 values is ChEMBL document CHEMBL1130868, “Synthesis of betulinic acid derivatives with activity against human melanoma” (1998).

In brackets after ≈: the same amount, converted by molar mass.

For one assay, the system named is KB. The assay is described as follows: Cytotoxicity against human epidermoid carcinoma of the mouth (KB) cell line. The class given is functional. Conditions: read-out: ED50 (the source's name).
For a further assay, the system named is SK-MEL-2. Kind of assay: Cytotoxicity against cultured human melanoma (MEL-2) cell line. It is filed as functional. To be noted: read-out: ED50 (the source's name).

`C=C(C)[C@@H]1CC[C@]2(C)CC[C@]3(C)[C@H](CC[C@@H]4[C@@]5(C)CC[C@H](OC(=O)c6ccccc6)C(C)(C)[C@@H]5CC[C@]43C)[C@@H]12`: the EC50 in the assay on KB and in the assay with SK-MEL-2 was more than 20 µg/mL each time. Turning to `C=C(C)[C@@H]1CC[C@]2(C=O)CC[C@]3(C)[C@H](CC[C@@H]4[C@@]5(C)CCC(=O)C(C)(C)[C@@H]5CC[C@]43C)[C@@H]12` [BETULONAL], the EC50 in the assay on KB came to 12.9 µg/mL (≈ 29.4 µM); with SK-MEL-2, 7.4 µg/mL (≈ 16.9 µM). The corresponding values for `C=C(C)[C@@H]1CC[C@]2(/C=N/OC)CC[C@]3(C)[C@H](CC[C@@H]4[C@@]5(C)CC/C(=N\OC)C(C)(C)[C@@H]5CC[C@]43C)[C@@H]12` are 20 µg/mL (≈ 40.3 µM) and more than 20 µg/mL. Regarding `C=C(C)[C@@H]1CC[C@]2(C(=O)O)CC[C@]3(C)[C@H](CC[C@@H]4[C@@]5(C)CCC(=O)C(C)(C)[C@@H]5CC[C@]43C)[C@@H]12` [BETUNOLIC ACID], the EC50 was 2.5 µg/mL (≈ 5.5 µM) with KB and 0.9 µg/mL (≈ 1.98 µM) with SK-MEL-2.

For `C=C(C)[C@@H]1CC[C@]2(C)CC[C@]3(C)[C@H](CC[C@@H]4[C@@]5(C)CC[C@H](O)C(C)(C)[C@@H]5CC[C@]43C)[C@@H]12` [LUPEOL], the EC50 in the assay on KB is more than 20 µg/mL; with SK-MEL-2 it was 17.6 µg/mL (≈ 41.2 µM). For the compound `C=C(C)[C@@H]1CC[C@]2(C(=O)O)CC[C@]3(C)[C@H](CC[C@@H]4[C@@]5(C)CC[C@H](O)C(C)(C)[C@@H]5CC[C@]43C)[C@@H]12` [BETULINIC ACID], the EC50 was more than 20 µg/mL in the assay with KB and 1.2 µg/mL (≈ 2.63 µM) with SK-MEL-2. Regarding `CC(C)[C@@H]1CC[C@]2(C(=O)O)CC[C@]3(C)[C@H](CC[C@@H]4[C@@]5(C)CC/C(=N\O)C(C)(C)[C@@H]5CC[C@]43C)[C@@H]12`, the EC50 in the assay with KB is more than 20 µg/mL; in the assay with SK-MEL-2, 2.2 µg/mL (≈ 4.66 µM). For the compound `CC(C)[C@@H]1CC[C@]2(C(=O)O)CC[C@]3(C)[C@H](CC[C@@H]4[C@@]5(C)CCC(=O)C(C)(C)[C@@H]5CC[C@]43C)[C@@H]12` [DIHYDROBETULONIC ACID], the EC50 is more than 20 µg/mL in the assay on KB and 0.7 µg/mL (≈ 1.53 µM) with SK-MEL-2. With `C=C(C)[C@@H]1CC[C@]2(/C=N/O)CC[C@]3(C)[C@H](CC[C@@H]4[C@@]5(C)CC/C(=N\O)C(C)(C)[C@@H]5CC[C@]43C)[C@@H]12` [BETULIN-3,28-DIOXIME], the EC50 with KB stood at 3.3 µg/mL (≈ 7.04 µM); in the assay on SK-MEL-2 it was 2.2 µg/mL (≈ 4.69 µM).

In the case of `CC(C)[C@@H]1CC[C@]2(C(=O)O)CC[C@]3(C)[C@H](CC[C@@H]4[C@@]5(C)CC[C@H](O)C(C)(C)[C@@H]5CC[C@]43C)[C@@H]12` [DIHYDROBETULINIC ACID], the results for the EC50 with KB and in the assay on SK-MEL-2 were more than 20 µg/mL and 5.8 µg/mL (≈ 12.6 µM), respectively. The corresponding values for `C=C(C)[C@@H]1CC[C@]2(C(=O)O)CC[C@]3(C)[C@H](CC[C@@H]4[C@@]5(C)CC/C(=N\OC)C(C)(C)[C@@H]5CC[C@]43C)[C@@H]12` are 4.3 µg/mL (≈ 8.89 µM) and 8.3 µg/mL (≈ 17.2 µM).

Turning to `CO/N=C1\CC[C@]2(C)[C@H]3CC[C@@H]4[C@H]5[C@H](C(C)C)CC[C@]5(C(=O)O)CC[C@@]4(C)[C@]3(C)CC[C@H]2C1(C)C`, the EC50 in the assay on KB and in the assay with SK-MEL-2 was more than 20 µg/mL in each case. As to `C=C(C)[C@@H]1CC[C@]2(CO)CC[C@]3(C)[C@H](CC[C@@H]4[C@@]5(C)CC[C@H](O)C(C)(C)[C@@H]5CC[C@]43C)[C@@H]12` [BETULIN], the EC50 in the assay with KB and with SK-MEL-2 was more than 20 µg/mL each time. For `C=C(C)[C@@H]1CC[C@]2(C(=O)O)CC[C@]3(C)[C@H](CC[C@@H]4[C@@]5(C)CC[C@H](N)C(C)(C)[C@@H]5CC[C@]43C)[C@@H]12`, in the assay with SK-MEL-2, the EC50 is 1.3 µg/mL (≈ 2.85 µM). Turning to `C=C(C)[C@@H]1CC[C@]2(C(=O)OC)CC[C@]3(C)[C@H](CC[C@@H]4[C@@]5(C)CC[C@H](O)C(C)(C)[C@@H]5CC[C@]43C)[C@@H]12` [METHYL BETULINATE], the EC50 with KB was 11.8 µg/mL (≈ 25.1 µM); in the assay with SK-MEL-2, 8.3 µg/mL (≈ 17.6 µM).
